Data as given in patent US20150143553A1, “Methods And Compositions Comprising A Drosophila Model Of Amyotrophic Lateral Sclerosis” (priority 2013, published 2015).
Where a name gives a salt, the structure may show the parent alone.

Experiments:
[1] = system: Drosophila larvae expressing wild-type TDP-43 in motor neurons; assay: Drug screen: rescue of lethality caused by wild-type TDP-43 expression in motor neurons (D42 Gal4); type: in vivo
[2] = system: cytochrome P450; details: cited from earlier work
[3] = system: Drosophila larvae expressing N345K TDP-43 in motor neurons; assay: Drug screen: rescue of lethality caused by N345K TDP-43 expression in motor neurons (D42 Gal4); type: in vivo; details: transgene N345K; 50 μM in fly food
Protocol: A drug screen aimed at rescuing the adult lethality caused by wild-type or mutant TDP-43 (D169G, G298S, A315T and N345K) overexpression in motor neurons has been performed (FIG. 11). 1200 FDA approved drugs from the Prestwick collection were fed to flies expressing TDP-43 at an initial concentration of 50 μM (as previously described in Chang et al., 2008). This screening strategy has several advantages including: (1) it is performed in vivo, (2) it is based on a robust phenotype (100% adult lethality), (3) it can lead to rapid identification of drugs that are already approved for use in humans and (4) it can inform the future development of small molecules with enhanced neuroprotective capabilities.
(§1) FDA approved drugs from the Prestwick collection (200 mM in DMSO) are mixed with yeast-cornmeal based food and a bromophenol blue (as a mixing indicator) at a final concentration of 50 μM. Larvae expressing TDP-43 (wild type or mutant, as shown) are raised on drug containing food. In the absence of drugs, TDP-43 expression is lethal at the pupal/pharate stage. Drugs that rescued TDP-43 Induced Lethality (anywhere from 1-12 adults) were considered as candidates for future studies.
as §1, with “DMSO) were” for “DMSO) are”, “TDP-43 (wt” for “TDP-43 (wild type”, “or mutant) were” for “or mutant, as shown) are”, “expression was” for “expression is”, “that rescue” for “that rescued”, “TDP-43 induced lethality” for “TDP-43 Induced Lethality”
Using a Drosophila model of ALS based on TDP-43 that recapitulates several aspects of the disease pathophysiology (33, 35), a drug screen aimed at identifying FDA approved compounds with neuroprotective potential in vivo were designed (FIG. 37A). […] This phenotype was used to screen for drug candidates with therapeutic potential as determined by their ability to rescue pupal lethality and produce viable adults with extended wings (FIG. 37A). […]

**Q.** For `Cc1c(C)c2c(c(C)c1O)CCC(C)(COc1ccc(CC3SC(=O)NC3=O)cc1)O2` (stereo not drawn) [Troglitazone], which “Preliminary rescue result: adults with normal wings” value (shortened to “Preliminary rescue result: adults”) ([1]; transgene WT2, 50 μM in fly food) is on record?
**A.** Its value is 2 Adults Normal Wings.

**Q.** And the “Rescue Effect” value ([1]; transgene wt, primary screening (50 μM), out of 15-20 pupae)?
**A.** Its value is 2 adults.

**Q.** What about the “activity in high-throughput screen for modulators of cytochrome P450” value [2] of the same compound?
**A.** Its value is “active”.

**Q.** Which “Preliminary rescue result: adults” value [3] does the source give for `C1CCC(C(CC2CCCCN2)C2CCCCC2)CC1` (stereo not drawn) [Perhexiline Maleate] here?
**A.** Its value is 12 Adults.

**Q.** For `CN(C)c1ccc(O)c2c1C[C@H]1C[C@H]3[C@H](N(C)C)C(O)=C(C(N)=O)C(=O)[C@@]3(O)C(O)=C1C2=O` [Minocycline], which “Preliminary rescue result: adults” value [3] is on record?
**A.** The value was 1 Adult Normal Wings Adults.

**Q.** For `CN1C(=O)CCS(=O)(=O)C1c1ccc(Cl)cc1` (stereo not drawn) [Chlormezanone], which “Preliminary rescue result: adults” value [3] is on record?
**A.** The value was 1 Adult Normal Wings Adults.
